Results reported in PubChem BioAssay (NCI).
Several values for one entry are separate records, joined by “and”; a condition that tells them apart may be missing. Equal values may be shown once.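 Method: 48-hour compound exposure of cells in 96-well plates, five concentrations, linear interpolation of endpoints. GI50: concentration for 50% inhibition of growth. TGI: concentration producing complete growth inhibition.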

Key:
Experiment in all cases: NCI anticancer screen, dose series, 48 h
UO-31 renal = test system: UO-31 renal
UACC-257 melanoma = test system: UACC-257 melanoma
MALME-3M melanoma = test system: MALME-3M melanoma
HOP-92 NSCLC = test system: HOP-92 NSCLC
SF-295 CNS = test system: SF-295 CNS
MOLT-4 leukemia = test system: MOLT-4 leukemia
LOX IMVI melanoma = test system: LOX IMVI melanoma
A498 renal = test system: A498 renal
OVCAR-8 ovarian = test system: OVCAR-8 ovarian
EKVX NSCLC = test system: EKVX NSCLC

Compound | GI50 (UO-31 renal) | TGI (UO-31 renal) | GI50 (UACC-257 melanoma) | TGI (UACC-257 melanoma) | GI50 (MALME-3M melanoma) | TGI (MALME-3M melanoma) | GI50 (HOP-92 NSCLC) [µM] | TGI (HOP-92 NSCLC) [µM] | GI50 (SF-295 CNS) | TGI (SF-295 CNS) | GI50 (MOLT-4 leukemia) | TGI (MOLT-4 leukemia) | GI50 (LOX IMVI melanoma) | TGI (LOX IMVI melanoma) | GI50 (A498 renal) | TGI (A498 renal) | GI50 (OVCAR-8 ovarian) | TGI (OVCAR-8 ovarian) | TGI (EKVX NSCLC) [µM] | GI50 (EKVX NSCLC) [µM]
CN1C[C@@H]2Cn3c(c(C4=C(c5cn(C)c6ccccc56)C(=O)NC4=O)c4ccccc43)C[C@H]2C1 | 2.01 µM and 2.98 µM | 5.38 µM and 6.66 µM | 4.03 µM and 3.93 µM | 8.01 µM and 7.6 µM | 3.78 µM and 3.89 µM | 7.36 µM and 8.03 µM | 6.76 | 12.7 | 3.42 µM and 3.76 µM | 7.15 µM and 8.89 µM | 5.46 µM and 3.49 µM | 16.8 µM and 11.9 µM | 4.16 µM and 3.96 µM | 7.9 µM and 7.86 µM | 4.76 µM and 4.45 µM | 8.59 µM and 8.23 µM | 4.74 µM and 4.35 µM | 11.4 µM and 11.1 µM |  | 
Cn1c(=O)c(C(=O)NC(=O)NCCCCCOC(=O)CCCCCCCCCCC(=O)OCCCCCNC(=O)NC(=O)c2cn(Cc3ccccc3)c(=O)n(C)c2=O)cn(Cc2ccccc2)c1=O |  | > 100 µM |  | > 100 µM |  | > 100 µM |  | > 100 |  |  |  |  |  | > 100 µM |  | > 100 µM |  | > 100 µM | > 100 | 
CCOC(=O)c1ccc(N2C(=O)Cc3ccccc3C2=O)cc1 |  | > 100 µM |  | > 100 µM |  | > 100 µM |  |  |  | > 100 µM |  | > 100 µM |  |  |  |  |  | > 100 µM | > 100 | 
CN(C)CCSCCO |  | > 100 µM |  | > 100 µM |  | > 100 µM |  | > 100 |  | > 100 µM |  |  |  | > 100 µM |  | > 100 µM |  | > 100 µM | > 100 | 
N#Cc1nc2c(S(=O)(=O)c3ccccc3)c(N)n(Cc3ccc(Cl)cc3)c2nc1C#N |  |  | 33.1 µM | > 50 µM |  |  | 12.3 | 46.2 | 14.7 µM | > 50 µM |  |  | 0.932 µM | 4.17 µM |  |  | 8.51 µM | 47.6 µM | > 50 | 19.1
CS(=O)(=O)N(CCC#N)c1ccc(C=O)cc1 |  | > 100 µM |  | > 100 µM |  | > 100 µM |  |  |  | > 100 µM |  | > 100 µM |  | > 100 µM |  | > 100 µM |  | > 100 µM | > 100 | 
CCOC(=O)C(C)(C)Oc1ccc2c(-c3ccc(Cl)cc3)c(-c3ccc(Cl)cc3)c(=O)oc2c1 |  | > 100 µM |  | > 100 µM |  | > 100 µM |  |  |  | > 100 µM |  | > 100 µM |  | > 100 µM |  | > 100 µM |  | > 100 µM | > 100 | 
CN(C)CCCCn1ccc2c1C(=O)c1c(c(O)c3ccccc3c1O)C2=O | 33 µM | > 100 µM | 15.5 µM | 29.5 µM |  |  |  |  | 4.63 µM | 15.5 µM |  |  | 10.4 µM | 24.2 µM |  |  | 11.5 µM | 25.6 µM |  | 
COc1c(Cl)ccc2c(-c3nc4cc(Cl)c(F)cc4s3)cc(=O)oc12 | 1.44 µM | 3.15 µM | 26.5 µM | > 73.6 µM | 2.11 µM | 4.73 µM | 1.77 | 4.07 | 10.4 µM | 52 µM | 4.1 µM | > 100 µM |  |  | 17.6 µM | 36 µM | 11.2 µM | > 100 µM |  | 
Clc1ccc(CNc2nccc(-c3cnn4ncccc34)n2)cc1 | 6.75 µM | > 19.5 µM | 6.43 µM | 16.5 µM | 8.94 µM | 23.3 µM |  |  | 5.36 µM | > 18.2 µM | 8.16 µM | > 25 µM | 6.12 µM | > 25 µM | 5.07 µM | 10.4 µM | 6.63 µM | > 25 µM | > 19.9 | 5.54
